{"source": "patent US6355799B1", "about": "“Substituted benzene compounds, process for their preparation, and herbicidal and defoliant compositions containing them” (ISK Americas Incorporated, priority 1997, dated 2002)", "assay_type_in_all_cases": "in vivo", "key": {"[1]": {"tested_on": "redroot pigweed (Amaranthus retroflexus, AMARE)", "test": "Pre-emerge test, greenhouse herbicide activity screening", "settings": "pre-emerge, rated 14 days after application, 0 = no damage, 100 = complete death", "procedure,_shortened": "(§1)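 Rating: 0–100 visual injury, 14 DAA. Application: acetone, 187 l/ha, 15–1000 g ai/ha, flat-fan track sprayer with nozzle 40–45 cm above soil or canopy. Post-emerge runs used 0.25% v/v surfactant on 2–3 leaf plants.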"}, "[2]": {"tested_on": "barnyardgrass (Echinochloa crus-galli, ECHCG)", "test": "Pre-emerge test, greenhouse herbicide activity screening", "settings": "pre-emerge, rated 14 days after application, 0 = no damage, 100 = complete death", "procedure,_shortened": "as §1"}, "[3]": {"tested_on": "green foxtail (Setaria viridis, SETVI)", "test": "Pre-emerge test, greenhouse herbicide activity screening", "settings": "pre-emerge, rated 14 days after application, 0 = no damage, 100 = complete death", "procedure,_shortened": "as §1"}, "[4]": {"tested_on": "ivyleaf morningglory (Ipomoea hederacea, IPOHE)", "test": "Pre-emerge test, greenhouse herbicide activity screening", "settings": "pre-emerge, rated 14 days after application, 0 = no damage, 100 = complete death", "procedure,_shortened": "as §1"}, "[5]": {"tested_on": "johnsongrass (Sorghum halepense, SORHA)", "test": "Pre-emerge test, greenhouse herbicide activity screening", "settings": "pre-emerge, rated 14 days after application, 0 = no damage, 100 = complete death", "procedure,_shortened": "as §1"}, "[6]": {"tested_on": "lambsquarters (Chenopodium album, CHEAL)", "test": "Pre-emerge test, greenhouse herbicide activity screening", "settings": "pre-emerge, rated 14 days after application, 0 = no damage, 100 = complete death", "procedure,_shortened": "as §1"}, "[7]": {"tested_on": "large crabgrass (Digitaria sanguinalis, DIGSA)", "test": "Pre-emerge test, greenhouse herbicide activity screening", "settings": "pre-emerge, rated 14 days after application, 0 = no damage, 100 = complete death", "procedure,_shortened": "as §1"}, "[8]": {"tested_on": "sicklepod (Cassia obtusifolia, CASOB)", "test": "Pre-emerge test, greenhouse herbicide activity screening", "settings": "pre-emerge, rated 14 days after application, 0 = no damage, 100 = complete death", "procedure,_shortened": "as §1"}, "[9]": {"tested_on": "velvetleaf (Abutilon theophrasti, ABUTH)", "test": "Pre-emerge test, greenhouse herbicide activity screening", "settings": "pre-emerge, rated 14 days after application, 0 = no damage, 100 = complete death", "procedure,_shortened": "as §1"}, "[10]": {"tested_on": "field corn (Zea mays L., var. Dekalb 535, CORN)", "test": "Pre-emerge test, crop safety", "settings": "pre-emerge, rated 14 days after application, 0 = no damage, 100 = complete death", "procedure,_shortened": "(§2)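 Applied at 15–1000 g ai/ha from acetone in 187 l/ha spray volume. Post-emergence applications included 0.25% v/v non-ionic surfactant and reached plants sown 8–21 days before. Pre-emergence applications were incorporated by surface watering. Efficacy or crop damage was rated on a 0–100 scale after 14 days.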"}, "[11]": {"tested_on": "upland rice (Oryza sp., var. Tebonnet, RICE)", "test": "Pre-emerge test, crop safety", "settings": "pre-emerge, rated 14 days after application, 0 = no damage, 100 = complete death", "procedure,_shortened": "as §2"}, "[12]": {"tested_on": "barnyardgrass (Echinochloa crus-galli, ECHCG)", "test": "Post-emerge test, greenhouse herbicide activity screening", "settings": "phytotoxicity rating 0-100 (0 no damage, 100 complete death), 14 days after application", "procedure,_shortened": "as §1"}, "[13]": {"tested_on": "green foxtail (Setaria viridis, SETVI)", "test": "Post-emerge test, greenhouse herbicide activity screening", "settings": "phytotoxicity rating 0-100 (0 no damage, 100 complete death), 14 days after application", "procedure,_shortened": "as §1"}, "[14]": {"tested_on": "ivyleaf morningglory (Ipomoea hederacea, IPOHE)", "test": "Post-emerge test, greenhouse herbicide activity screening", "settings": "phytotoxicity rating 0-100 (0 no damage, 100 complete death), 14 days after application", "procedure,_shortened": "as §1"}, "[15]": {"tested_on": "johnsongrass (Sorghum halepense, SORHA)", "test": "Post-emerge test, greenhouse herbicide activity screening", "settings": "phytotoxicity rating 0-100 (0 no damage, 100 complete death), 14 days after application", "procedure,_shortened": "as §1"}, "[16]": {"tested_on": "lambsquarters (Chenopodium album, CHEAL)", "test": "Post-emerge test, greenhouse herbicide activity screening", "settings": "phytotoxicity rating 0-100 (0 no damage, 100 complete death), 14 days after application", "procedure,_shortened": "as §1"}, "[17]": {"tested_on": "large crabgrass (Digitaria sanguinalis, DIGSA)", "test": "Post-emerge test, greenhouse herbicide activity screening", "settings": "phytotoxicity rating 0-100 (0 no damage, 100 complete death), 14 days after application", "procedure,_shortened": "as §1"}, "[18]": {"tested_on": "redroot pigweed (Amaranthus retroflexus, AMARE)", "test": "Post-emerge test, greenhouse herbicide activity screening", "settings": "phytotoxicity rating 0-100 (0 no damage, 100 complete death), 14 days after application", "procedure,_shortened": "as §1"}, "[19]": {"tested_on": "sicklepod (Cassia obtusifolia, CASOB)", "test": "Post-emerge test, greenhouse herbicide activity screening", "settings": "phytotoxicity rating 0-100 (0 no damage, 100 complete death), 14 days after application", "procedure,_shortened": "as §1"}, "[20]": {"tested_on": "velvetleaf (Abutilon theophrasti, ABUTH)", "test": "Post-emerge test, greenhouse herbicide activity screening", "settings": "phytotoxicity rating 0-100 (0 no damage, 100 complete death), 14 days after application", "procedure,_shortened": "as §1"}, "[21]": {"tested_on": "field corn (Zea mays L., var. Dekalb 535, CORN)", "test": "Post-emerge test, crop safety", "settings": "phytotoxicity rating 0-100 (0 no damage, 100 complete death), 14 days after application", "procedure,_shortened": "(§3)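 Plants grown in 10 cm pots of sandy loam mix received acetone-dissolved compounds through a moving flat-fan nozzle. Doses ranged from 15 to 1000 g ai/ha. Pre-emerge pots were seeded one day earlier, post-emerge pots 8–21 days earlier. Fourteen days on, each pot was graded 0–100 for damage.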"}, "[22]": {"tested_on": "upland rice (Oryza sp., var. Tebonnet, RICE)", "test": "Post-emerge test, crop safety", "settings": "phytotoxicity rating 0-100 (0 no damage, 100 complete death), 14 days after application", "procedure,_shortened": "as §3"}}}
{"compound": "CCOC(=O)COc1c(Cl)cc(F)c(-n2c(=O)cc(C(F)(F)F)n(C)c2=O)c1N", "note": "[Compound 1-59]", "values": [{"measurement": "Pre-emerge Herbicidal Activity AMARE (phytotoxicity rating, scale 0-100)", "setting": "[1]; 63 g ai/ha", "result": 100}, {"measurement": "Pre-emerge Herbicidal Activity AMARE (phytotoxicity rating, scale 0-100)", "setting": "[1]; 250 g ai/ha", "result": 100}, {"measurement": "Pre-emerge Herbicidal Activity ECHCG (phytotoxicity rating, scale 0-100)", "setting": "[2]; 63 g ai/ha", "result": 0}, {"measurement": "Pre-emerge Herbicidal Activity ECHCG (phytotoxicity rating, scale 0-100)", "setting": "[2]; 250 g ai/ha", "result": 70}, {"measurement": "Pre-emerge Herbicidal Activity SETVI (phytotoxicity rating, scale 0-100)", "setting": "[3]; 63 g ai/ha", "result": 30}, {"measurement": "Pre-emerge Herbicidal Activity SETVI (phytotoxicity rating, scale 0-100)", "setting": "[3]; 250 g ai/ha", "result": 90}, {"measurement": "Pre-emerge Herbicidal Activity IPOHE (phytotoxicity rating, scale 0-100)", "setting": "[4]; 63 g ai/ha", "result": 100}, {"measurement": "Pre-emerge Herbicidal Activity IPOHE (phytotoxicity rating, scale 0-100)", "setting": "[4]; 250 g ai/ha", "result": 100}, {"measurement": "Pre-emerge Herbicidal Activity SORHA (phytotoxicity rating, scale 0-100)", "setting": "[5]; 63 g ai/ha", "result": 30}, {"measurement": "Pre-emerge Herbicidal Activity SORHA (phytotoxicity rating, scale 0-100)", "setting": "[5]; 250 g ai/ha", "result": 85}, {"measurement": "Pre-emerge Herbicidal Activity CHEAL (phytotoxicity rating, scale 0-100)", "setting": "[6]; 63 g ai/ha", "result": 100}, {"measurement": "Pre-emerge Herbicidal Activity CHEAL (phytotoxicity rating, scale 0-100)", "setting": "[6]; 250 g ai/ha", "result": 100}, {"measurement": "Pre-emerge Herbicidal Activity DIGSA (phytotoxicity rating, scale 0-100)", "setting": "[7]; 63 g ai/ha", "result": 30}, {"measurement": "Pre-emerge Herbicidal Activity DIGSA (phytotoxicity rating, scale 0-100)", "setting": "[7]; 250 g ai/ha", "result": 90}, {"measurement": "Pre-emerge Herbicidal Activity CASOB (phytotoxicity rating, scale 0-100)", "setting": "[8]; 63 g ai/ha", "result": 30}, {"measurement": "Pre-emerge Herbicidal Activity CASOB (phytotoxicity rating, scale 0-100)", "setting": "[8]; 250 g ai/ha", "result": 80}, {"measurement": "Pre-emerge Herbicidal Activity ABUTH (phytotoxicity rating, scale 0-100)", "setting": "[9]; 63 g ai/ha", "result": 100}, {"measurement": "Pre-emerge Herbicidal Activity ABUTH (phytotoxicity rating, scale 0-100)", "setting": "[9]; 250 g ai/ha", "result": 100}, {"measurement": "Pre-emerge crop damage CORN (phytotoxicity rating, scale 0-100)", "setting": "[10]; 63 g ai/ha", "result": 30}, {"measurement": "Pre-emerge crop damage CORN (phytotoxicity rating, scale 0-100)", "setting": "[10]; 250 g ai/ha", "result": 90}, {"measurement": "Pre-emerge crop damage RICE (phytotoxicity rating, scale 0-100)", "setting": "[11]; 63 g ai/ha", "result": 30}, {"measurement": "Pre-emerge crop damage RICE (phytotoxicity rating, scale 0-100)", "setting": "[11]; 250 g ai/ha", "result": 70}, {"measurement": "Post-emerge Herbicidal Activity ECHCG", "setting": "[12]; 63 g ai/ha", "result": 30}, {"measurement": "Post-emerge Herbicidal Activity ECHCG", "setting": "[12]; 250 g ai/ha", "result": 80}, {"measurement": "Post-emerge Herbicidal Activity SETVI", "setting": "[13]; 63 g ai/ha", "result": 10}, {"measurement": "Post-emerge Herbicidal Activity SETVI", "setting": "[13]; 250 g ai/ha", "result": 70}, {"measurement": "Post-emerge Herbicidal Activity IPOHE", "setting": "[14]; 63 g ai/ha", "result": 100}, {"measurement": "Post-emerge Herbicidal Activity IPOHE", "setting": "[14]; 250 g ai/ha", "result": 100}, {"measurement": "Post-emerge Herbicidal Activity SORHA", "setting": "[15]; 63 g ai/ha", "result": 10}, {"measurement": "Post-emerge Herbicidal Activity SORHA", "setting": "[15]; 250 g ai/ha", "result": 50}, {"measurement": "Post-emerge Herbicidal Activity CHEAL", "setting": "[16]; 63 g ai/ha", "result": 100}, {"measurement": "Post-emerge Herbicidal Activity CHEAL", "setting": "[16]; 250 g ai/ha", "result": 100}, {"measurement": "Post-emerge Herbicidal Activity DIGSA", "setting": "[17]; 63 g ai/ha", "result": 0}, {"measurement": "Post-emerge Herbicidal Activity DIGSA", "setting": "[17]; 250 g ai/ha", "result": 40}, {"measurement": "Post-emerge Herbicidal Activity AMARE", "setting": "[18]; 63 g ai/ha", "result": 95}, {"measurement": "Post-emerge Herbicidal Activity AMARE", "setting": "[18]; 250 g ai/ha", "result": 100}, {"measurement": "Post-emerge Herbicidal Activity CASOB", "setting": "[19]; 63 g ai/ha", "result": 40}, {"measurement": "Post-emerge Herbicidal Activity CASOB", "setting": "[19]; 250 g ai/ha", "result": 100}, {"measurement": "Post-emerge Herbicidal Activity ABUTH", "setting": "[20]; 63 g ai/ha", "result": 100}, {"measurement": "Post-emerge Herbicidal Activity ABUTH", "setting": "[20]; 250 g ai/ha", "result": 100}, {"measurement": "Post-emerge Herbicidal Activity CORN (crop damage)", "setting": "[21]; 63 g ai/ha", "result": 45}, {"measurement": "Post-emerge Herbicidal Activity CORN (crop damage)", "setting": "[21]; 250 g ai/ha", "result": 80}, {"measurement": "Post-emerge Herbicidal Activity RICE (crop damage)", "setting": "[22]; 63 g ai/ha", "result": 30}, {"measurement": "Post-emerge Herbicidal Activity RICE (crop damage)", "setting": "[22]; 250 g ai/ha", "result": 60}]}
